pIC50: −log10 of the molar value. Like-named read-outs stand apart in the source and are kept apart here.
Legend:
[1] = system: 3D human liver microtissues (hLiMT); assay: Cytotoxicity (cellular ATP, CellTiter-Glo 2.0) in 3D human liver microtissues, 14 day repeat-dose treatment; conditions: for IC50: Homo sapiens, Hepatocyte, 336 h, read-out: Geomean IC50 [µM]; for pIC50: read-out: Geomean IC50, decrease in total cellular ATP content, hLiMT treated for 14 days, hepatocyte lot IZT (except Dexamethasone) co-cultured with NPCs, n=1 or geometric mean
[2] = cited from earlier work
[3] = system: primary human hepatocytes (PHH); assay: Cytotoxicity (cellular ATP, CellTiter-Glo) in 2D plated primary human hepatocytes, 48 h treatment; assay type: cell-based; conditions: for pIC50: read-out: Geomean IC50;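 for all read-outs here: 384-well plates, luminescence read-out, normalized to vehicle wells with 1% DMSO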
[4] = cited from earlier work; for DILI category: clinical, from literature and product labels, ref Garside et al. 2014
[5] = ref Chen et al 2016 / Chen et al 2011; cited from earlier work
[6] = human Cmax total, used for IC50/Cmax
[7] = human total plasma Cmax, ref literature values
[8] = Hepatocyte, 2D primary human hepatocytes (lot IZT), 48 h treatment, total cellular ATP content
[9] = Table 1, ref Garside et al. (2014)
[10] = clinical DILI severity category, 1-5
[11] = 2D primary human hepatocytes (lot IZT), 48 h treatment, total cellular ATP content

Compound	IC50 [1] [µM]	Cmax [2, 6] [nM]	Cmax [2, 7] [nM]	pIC50 [3, 8]	also measured
Cc1onc(-c2c(F)cccc2Cl)c1C(=O)N[C@@H]1C(=O)N2[C@@H]1SC(C)(C)[C@@H]2C(=O)O [Flucloxacillin]	12200	66100	66100	2.33	DILI severity category [4, 9]: 2: High clinical DILI concern (N = 23); DILI severity category [4, 10]: 2. High Clinical DILI Concern; DILI category [4]: 2. High Clinical DILI Concern
O=c1[nH]c2ccccc2n1C1CCN(CCCC(c2ccc(F)cc2)c2ccc(F)cc2)CC1 [Pimozide]	> 6	110	110	4.75	FDA DILI Classification DILI severity score [5]: 0; LTKB DILI classification [5]: no DILI concern; DILI severity category [4, 9]: 3: Low clinical DILI concern (N = 23); DILI severity category [4, 10]: 3. Low Clinical DILI Concern; DILI category [4]: 3. Low Clinical DILI Concern
C[C@H]1O[C@@H](O[C@H]2[C@@H](O)C[C@H](O[C@H]3[C@@H](O)C[C@H](O[C@H]4CC[C@@]5(C)[C@H](CC[C@@H]6[C@@H]5C[C@@H](O)[C@]5(C)[C@@H](C7=CC(=O)OC7)CC[C@]65O)C4)O[C@@H]3C)O[C@@H]2C)C[C@H](O)[C@@H]1O [Digoxin]	0.33				classification at 100 μM IC50 threshold ([1]; hLiMT 14 days): false positives; pIC50 ([3]; Homo sapiens, Hepatocyte, 48 h): > 6.82; classification at 100 μM IC50 threshold ([3]; PHH 48 h): false positives; classification at 50× MOS threshold ([3]; PHH 48 h): false positive
CNCCC(Oc1ccc(C(F)(F)F)cc1)c1ccccc1 (centres unmarked) [Fluoxetine]		50	50		
N[C@@H]1CON=C1O [Cycloserine]	7460	333000	333000	< 5.00	
N[C@@H](Cc1cc(I)c(Oc2ccc(O)c(I)c2)c(I)c1)C(=O)O [Liothyronine]	> 10	2.46	2.46		pIC50 ([3]; Homo sapiens, Hepatocyte, 48 h): < 5.00
CCCC(CCC)C(=O)O [Valproic acid]	> 100	693000	693000	< 4.00	
COC(=O)C1=C(C)NC(C)=C(C(=O)OCCN(C)Cc2ccccc2)C1c1cccc([N+](=O)[O-])c1 (centres unmarked) [Nicardipine]		80	80		
CN1CCN(C2=Nc3cc(Cl)ccc3Nc3ccccc32)CC1 [Clozapine]		2400	2450		
OC(CCN1CCCC1)(c1ccccc1)C1CCCCC1 (centres unmarked) [Procyclidine]	117	2190	2190	4.01	classification at 50× MOS threshold ([3]; PHH 48 h): false positive
CN1C(C(=O)Nc2nccs2)=C(O)c2ccccc2S1(=O)=O [Sudoxicam]	> 100	77000	77100	< 4.00	
CCN(CC)CC#CCOC(=O)C(O)(c1ccccc1)C1CCCCC1 (centres unmarked) [Oxybutynin]		22	22.4		
CC/C(=C(\c1ccccc1)c1ccc(OCCN(C)C)cc1)c1ccccc1 [Tamoxifen]		400	400		
CN(C)CCCN1c2ccccc2CCc2ccccc21 [Imipramine]		540	530		
CN(CCOc1ccc(CC2SC(=O)NC2=O)cc1)c1ccccn1 (centres unmarked) [Rosiglitazone]		1000	1040	< 4.00	FDA DILI Classification DILI severity score [5]: 3; LTKB DILI classification [5]: less DILI concern; DILI severity category [4, 9]: 2: High clinical DILI concern (N = 23); DILI severity category [4, 10]: 2. High Clinical DILI Concern; DILI category [4]: 2. High Clinical DILI Concern
CS(=O)(=O)Nc1ccc([N+](=O)[O-])cc1Oc1ccccc1 [Nimesulide]	60.5	21100	21100	3.36	

Compound	IC50 [1] [µM]	Cmax [2, 6] [nM]	Cmax [2, 7] [nM]	pIC50 [3, 8]	also measured
CN1[C@@H]2CC[C@H]1C[C@@H](OC(=O)[C@H](CO)c1ccccc1)C2 [Hyoscyamine (Daturine)]					pIC50 [1]: < 5.00; pIC50 [3, 11]: < 5.00
Clc1ccccc1CN1CCc2sccc2C1 [Ticlopidine]		8100	8070		
CCOC(=O)C1=C(C)NC(C)=C(C(=O)OC)C1c1cccc(Cl)c1Cl (centres unmarked) [Felodipine]	> 10	30	30	< 5.00	
CO[C@@]12[C@H](COC(N)=O)C3=C(C(=O)C(C)=C(N)C3=O)N1C[C@@H]1N[C@@H]12 [Mitomycin C]	< 0.8	7100	7100		pIC50 ([3]; Homo sapiens, Hepatocyte, 48 h): 4.83
Nc1cc(N2CCCCC2)nc(N)[n+]1[O-] [Minoxidil]	> 100	1200	1190	< 4.00	
O=P1(N(CCCl)CCCl)NCCCO1 (centres unmarked) [Cyclophosphamide]	> 2000				Cmax ([2]; human, in vivo): 143000 nM; pIC50 ([3]; Homo sapiens, Hepatocyte, 48 h): < 2.70
Cc1ccc(N(CC2=NCCN2)c2cccc(O)c2)cc1 [Phentolamine]	> 100	90	90	< 4.00	
CCN1C(=O)NC(c2ccccc2)C1=O (centres unmarked) [Ethotion]	> 150	367000	367000	< 2.90	
O=C(O)COc1ccc(C(=O)c2cccs2)c(Cl)c1Cl [Tienilic Acid]	567	82700	82700	< 4.00	DILI severity category [4, 9]: 1: Severe clinical DILI (N = 23); DILI severity category [4, 10]: 1. Severe Clinical DILI; DILI category [4]: 1. Severe Clinical DILI
CCN(CC)Cc1cc(Nc2ccnc3cc(Cl)ccc23)ccc1O [Amodiaquine]	< 7.8	1910	1910	4.73	DILI severity category [4, 9]: 2: High clinical DILI concern (N = 23); DILI severity category [4, 10]: 2. High Clinical DILI Concern; DILI category [4]: 2. High Clinical DILI Concern
CNCCCN1c2ccccc2CCc2ccccc21 [Desipramine]		1880	1880		FDA DILI Classification DILI severity score [5]: 3; LTKB DILI classification [5]: Ambiguous DILI concern; DILI severity category [4, 9]: 3: Low clinical DILI concern (N = 23); DILI severity category [4, 10]: 3. Low Clinical DILI Concern; DILI category [4]: 3. Low Clinical DILI Concern
N[C@@H]1[C@H]2CN(c3nc4c(cc3F)c(=O)c(C(=O)O)cn4-c3ccc(F)cc3F)C[C@@H]12 [Trovafloxacin]	> 125			< 3.90	
CN(C)C(=O)Oc1ccc[n+](C)c1 [Pyridostigmine]	> 100	1100	1100	< 3.70	
C[C@H]1COc2c(N3CCN(C)CC3)c(F)cc3c(=O)c(C(=O)O)cn1c23 [Levofloxacin]	> 320	15800	15800	< 3.30	
C#C[C@]1(O)CC[C@H]2[C@@H]3CCC4=Cc5oncc5C[C@]4(C)[C@H]3CC[C@@]21C [Danazol]	> 100		207000	3.97	
Cc1ccc(-c2cc(C(F)(F)F)nn2-c2ccc(S(N)(=O)=O)cc2)cc1 [Celocoxib]		2540	2540		pIC50 [1]: 4.58; pIC50 [3, 11]: 3.81; DILI severity category [4, 9]: 2: High clinical DILI concern (N = 23); DILI severity category [4, 10]: 2. High Clinical DILI Concern; DILI category [4]: 2. High Clinical DILI Concern
